Reference: patent publication US11957766B2, “HNQO1-activatable fluorescent probe for imaging cancer cells in-vitro and in-vivo” (Texas Tech University System, priority 2019, dated 2024)

Legend:
[1] = test system: subcutaneous U87MG tumor; experiment: Fluorescence imaging of hNQO1 in subcutaneous U87MG tumor-bearing mice with NQ-DCP; type: in vivo
Description: Fluorescence Imaging of hNQO1 in U87MG Tumor-Bearing Mice. With the prominent performance of NQ-DCP in cellular fluorescence imaging, the inventors further applied this probe to evaluate its capacity for the noninvasive fluorescence imaging of hNQO1 in vivo. NQ-DCP (10 mg/kg, 50 μL) was intravenously injected into sub-cutaneous U87MG tumor-bearing mice. The whole-body fluorescence was imaged with a Caliper IVIS Spectral imaging system. […] The host organs and tumor from the mice administered with NQ-DCP were harvested and their fluorescence was analyzed ex vivo using the IVIS to confirm the tumor-selective targeting ability of NQ-DCP. […] The application of NQ-DCP to image hNQO1 activity was also investigated in intracranial U87MG tumor-bearing mice. Tumor xenografts were established by implanting exponentially growing U87MG-Luc cells by stereotaxic injection into mice brain and the tumor growth was assessed by quantitative bioluminescence using IVIS (in vivo imaging system) (FIG. 7C). […] Therefore, the inventors performed intracranial injection of NQ-DCP (100 μM, 5 μL) to both healthy and tumor-bearing mice, the brain was isolated after 30 min and fluorescence images acquired.
Four-week-old male and female NCG and athymic nude mice were housed in a micro ventilated caging system in a sterile environment and fed ad-libitum with standard irradiated research rodent diet and water. […]

[2] = test system: A549 and H460 cells; experiment: Flow cytometry of NIR-ASM in NQO1-positive cancer cell lines; type: cell-based, human; conditions: 60 min, about 1×10^4 cells
Description: Detection of NQO1 in live cells. Inspired by the excellent biocompatibility, the inventors investigated its performance in both NQO1 expressing cancer cells (A549, H460) and NQO1 non-expressing normal cells (IMR90, HUVEC). All cells were incubated with NIR-ASM (10 μM) for 60 min, washed with PBS and were imaged under a confocal microscope after counterstaining the nuclei with Hoechst 33342 (FIG. 12A). […] The higher expression of NQO1 protein in A549 and H460 cells and its absence in normal cells, IMR90 and HUVEC as found with western blot analysis correlated with the probe reactivity in cells (FIG. 12B). […] Cell sorting using flow cytometry is a well-established technology in clinical diagnostics and biomedical research. To assess the applicability of the NIR-ASM to rapidly detect and quantify in both cancer and normal cells based on NQO1 expression, the probe was incubated with cell suspensions for 60 min, and about 1×10^4 cells were analyzed on a flow cytometer.
Flow cytometry analysis. The endogenous NQO1 activity of cancer cells and normal cells was determined by flow cytometry after NIR-ASM exposure. Cells were incubated with 10 μM of NIR-ASM for 60 min, harvested by trypsinization and washed with PBS. For inhibitor study, cells were pretreated with NQO1 inhibitor ES936 (100 nM) for 6 h before adding the NIR-ASM. About 1×10^4 cells were analyzed by flow cytometry (λex=488 nm).

[3] = test system: Lewis Lung carcinoma (LLC) tumors; experiment: In vivo and ex vivo NIRF imaging with NIR-ASM in Lewis Lung carcinoma (LLC) lung cancer model; design: species or system C57BL/6 mice
Text: Whether still in-situ or already disseminated, early diagnosis of cancer is an essential requirement for successful therapy. Although NQO1 is expressed at higher levels in cancers compared to a diminished or absent status in normal tissues, the diagnostic potential of existing NQO1 specific fluorescent probes has not been realized. Therefore, the inventors evaluated the non-invasive diagnostic ability of NIR-ASM in a metastatic syngeneic lung cancer model to mimic the clinical situation. Lung cancer was established in C57BL/6 mice by injecting Lewis Lung carcinoma (LLC) cells (0.5×10^6 per animal) intravenously. This cell line is highly tumorigenic and is primarily used to model metastasis as well as evaluate the efficacy of chemotherapeutic agents in vivo.^44 The LLC cells have ˜80 units of NQO1 activity compared to <10 units in healthy mouse lungs.^45 Two weeks after the implantation, the animals received NIR-ASM (5 mg/kg) intravenously. […] There are several routes for drug elimination from the body and the majority of drugs are eliminated by pathways that involve the kidneys.
In vivo bioimaging. The animal study protocol was approved by the Institutional Animal Use and Care Committee (IACUC), Texas Tech University Health Sciences Center, Protocol number: 07050. All experimental protocols used in this study were approved by IACUC, Texas Tech University Health Sciences Center and all the methods were carried out according to the committee guidelines. Female athymic nude mice (nu/nu, 4-6 weeks) were purchased from Charles River Laboratories (Wilmington, MA, USA). BALB/c57 mice were provided by Dr. Constantinos Mikelis of our University. To establish A549 or MDA-MB-231 xenografts, a total of 5×10^6 cells (in 0.1 ml of serum-free media and Matrigel (1:1)) were subcutaneously injected into the flanks of the mice. For developing orthotopic lung cancer models, LLC cells (0.5×10^6) were intravenously injected into the tail veins of female BALB/c57 mice. All animals were monitored for activity, physical condition, body weight, and tumor growth. To detect endogenous NQO1 activity, NIR-ASM was dissolved in a vehicle of composition, PEG-300:EtOH:saline (60:30:10, v/v/v) and given intravenously through tail vein injection. The animals were imaged at different time intervals with excitation/emission filters of 500/640 nm using the IVIS Lumina XR Imaging system. At the end of the experiments, the xenografted tumors, hearts, lungs, livers, kidneys, spleens, and brains were removed and imaged to confirm the signal locations. Fluorescence represented in log values of radiance is photons per second per square centimeter per steradian.

SMILES | time of maximum fluorescence in the tumor ([1]; 10 mg/kg, 50 μL, intravenous) [min] | ex vivo fluorescence in tumor and organs ([1]; organs harvested after intravenous NQ-DCP, 30 min) | flow cytometry fluorescence signal, NQO1-positive cells [2] | time of maximum fluorescence intensity ([3]; 5 mg/kg intravenous) [min] | NIRF signal intensity of tumor-bearing lungs compared to other selected organs ([3]; 5 mg/kg intravenously, two weeks after implantation) | route of elimination ([3]; fluorescence observed in kidneys during ex vivo NIRF imaging) | fluorescence in the lungs of healthy mice ([3]; non-tumor-bearing mouse, intravenous NIR-ASM)
CC1=C(C)C(=O)C(C(C)(C)CC(=O)Oc2ccc(/C=C/C3=CC(=C(C#N)C#N)CC(C)(C)C3)cc2)=C(C)C1=O [NQ-DCP] | 30 | selectively observed in the tumor and not in any other major organs | – | – | – | – | –
CC1=C(C)C(=O)C(C(C)(C)CC(=O)Nc2ccc(/C=C/C3=CC(=C(C#N)C#N)CC(C)(C)C3)cc2)=C(C)C1=O [NIR-ASM, (E)-N-(4-(2-(3-(dicyanomethylene)-5,5-dimethylcyclohex-1-en-1-yl)vinyl)phenyl)-3-methyl-3-(2,4,5-trimethyl-3,6-dioxocyclohexa-1,4-dien-1-yl)butanamide] | – | – | high-intensity unimodal distribution of signals | 30 | more than 100 fold | renal excretion might play an important role | no fluorescence observed
